Experiments:
5XFAD mice = assay: 5XFAD AD mice model, water maze and amyloid burden; assay type: in vivo; conditions: 9-month-old 5XFAD mice, 12.5 mg/kg daily for 30 days, IP
Text: . First, the 5XFAD mice was used as the AD model. […] .

CML (K562) cell line = assay: K562 cell proliferation inhibition by MTT assay, 48 hours; assay type: cell-based; conditions: K562, 48 hours; for AC50: Homo sapiens, determined in different assays
Protocol: In this example, the ability of two compound embodiments described here, NCGC00373060 and NCGC00373056, to induce cell death in the CML (K562) cell line was evaluated. The leukemia cells were incubated with different concentrations of the compounds for 48 hours, and the cell proliferation inhibition was evaluated by the MTT assay. […] The leukemia cells were incubated with different concentrations of each compound embodiment for 48 hours, and the cell proliferation inhibition was evaluated by the MTT assay.

neurons = assay: Apoptotic nuclei induced by Aβ fibrils, Hoescht staining; assay type: cell-based
Protocol: Additional results from another compound embodiment, NCGC00355553, are provided by FIG. 9C. Apoptotic nuclei were evaluated by Hoescht staining.

Leukemia K562 cell = Leukemia K562 cell proliferation/viability assay (CellTiterGlo, 48 hours); assay type: cell-based; design: unit not given here; conditions: K562 cells
How it was run: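 BCR-Abl-dependent K562 cells treated with compound for 48 hours in an HTS-adapted format. Viability read out with CellTiterGlo reagent.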

[1] = Pharmacokinetic profile in brain; assay type: in vivo, mice; conditions: 12.5 mg/kg IP
hippocampal neurons [2] = assay: Neuroprotection against Aβ fibrils, MTT assay; assay type: cell-based; conditions: 0.01, 0.1 and 1 μM; 5 μM Aβ peptide, 24 hours
Protocol: Compound embodiments NCGC00373060 and NCGC00373056 also conferred neuroprotection against Aβ fibrils. […] Additional data from other compounds are provided by FIGS. 8C-8E. Neurons were incubated with 5 μM Aβ peptide in presence of the different compound concentrations for 24 hours and cell viability was evaluated by the MTT assay. Results from additional compounds are provided by FIG. 8C.

[3] = Pharmacokinetic profile in plasma; assay type: in vivo, mice; conditions: 12.5 mg/kg IP
[4] = test system: P. falciparum strain NF54 asexual parasites; assay: Asexual stage parasite growth inhibition, SYBR Green assay, 72 hours; assay type: cell-based; conditions: for % Killing / IC50: NF54, 72 hours; for IC50: Plasmodium falciparum
Protocol: In this example, several of the c-Abl inhibitors were tested in the asexual […] strain of P. falciparum parasites for activity against malaria. […] The pre-diluted parasites were dispensed into a 1536-well plate (2.5 μL/well). […] The fluorescence of each well was measured at 520 nm following excitation at 490 nm using a ViewLux platereader (PerkinElmer).

hippocampal neurons [5] = assay: Neuronal death induced by Glutamate, MTT cell viability test
TLE mice model [6] = assay: Pilocarpine TLE epilepsy model, IP pre-treatment; conditions: 5 mg/Kg IP each day three days before Pilocarpine
Protocol: The injected animals were observed by 60 min after the Pilocarpine.

TLE mice model [7] = assay: Pilocarpine-induced status epilepticus (SE) after 15 days of supplemented diet; assay type: in vivo, mice (C57BL/6)
Protocol: In this example, the ability of compound embodiments of the present disclosure to increase survival and diminish seizure symptoms in a TLE mice model was evaluated. […] The animals' weights were determined the week before and during the two weeks of c-Abl inhibitors treatment (results are provided in Table 12 and are illustrated graphically in FIG. 28). After 15 days of feeding, status epilepticus (SE) induction was evaluated. The mice were IP injected with Scopolamine (1.5 mg/Kg) and after 15 minutes, the SE was induced by IP injection of Pilocarpine (420 mg/Kg). The animals' behavior and the seizures induction was evaluated according to Racine's scale and the survival was determined during 60 minutes post-SE induction. […] Results are tabulated in Table 13, below and also are illustrated graphically in FIGS. 29A-29D.

[8] = mean, diet 67 ppm NCGC00373060 or 200 ppm Nilotinib

CNS(=O)(=O)c1cccc(-c2ccc3c(c2)C(=O)Nc2cc(OC(F)(F)F)ccc2O3)c1 [NCGC00373056, N-Methyl-3-(11-oxo-8-(trifluoromethoxy)-10H-dihydrodibenzo[b,f][1,4]oxazepin-2-yl)benzenesulfonamide]
cognitive decline, water maze (5XFAD mice): protected 5XFAD mice against the cognitive decline
AC50 (CML (K562) cell line): 500 nM
induction of cell death (CML (K562) cell line; MTT): able to induce cell death
apoptotic nuclei induced by Aβ fibrils (neurons): prevention of the increases in apoptotic nuclei induced by Aβ fibrils
Efficacy (Leukemia K562 cell): −78.5
Brain concentration ([1]; Time 0.083): 1.291 µmol/kg
Brain concentration ([1]; Time 0.25): 2.649 µmol/kg
Brain concentration ([1]; Time 0.5): 2.658 µmol/kg
Brain concentration ([1]; Time 1): 3.381 µmol/kg
Brain concentration ([1]; Time 2): 2.212 µmol/kg
Brain concentration ([1]; Time 4): 1.065 µmol/kg
Brain concentration ([1]; Time 7): 0.202 µmol/kg
Brain concentration ([1]; Time 24): 0.004 µmol/kg
neuroprotection against Aβ toxicity (hippocampal neurons [2]): protect neurons against the Aβ toxicity
Plasma concentration ([3]; Time 0.083): 12080 nM
Plasma concentration ([3]; Time 0.25): 16961 nM
Plasma concentration ([3]; Time 0.5): 16559 nM
Plasma concentration ([3]; Time 1): 8627 nM
Plasma concentration ([3]; Time 2): 6747 nM
Plasma concentration ([3]; Time 4): 2600 nM
Plasma concentration ([3]; Time 7): 421 nM
Plasma concentration ([3]; Time 24): 9 nM
activity against malaria parasites ([4]; NF54): low single digit uM range
% Killing [4]: 96.5%
IC50 [4]: 1360 nM

O=C1Nc2cc(OC(F)(F)F)ccc2Oc2ccc(-c3ccnc(N4CCNCC4)c3)cc21 [NCGC00373060, 2-(2-(Piperazin-1-yl)pyridin-4-yl)-8-(trifluoromethoxy)dibenzo[b,j][1,4]oxazepin-11(10H)-one]
protection against neuronal death induced by Glutamate (hippocampal neurons [5]): protects neurons against neuronal death induced by Glutamate
AC50 (CML (K562) cell line): 5000 nM
Efficacy (Leukemia K562 cell): −99.1
mortality associated to the epileptic status (TLE mice model [6]): decreases the mortality associated to the epileptic status
seizures, latency time (TLE mice model [6]): prevented the seizures increasing the latency time
Survival % (TLE mice model [7]; individual mice, 60 minutes post-SE induction): 100%
Latency SE (TLE mice model [7]; individual mice, diet 67 ppm NCGC00373060 or 200 ppm Nilotinib): 19 min
Survival %, mean (TLE mice model [7]; mean, 60 minutes post-SE induction): 100%
Latency SE, mean (TLE mice model [7]; [8]): 19 min
SE %, mean (TLE mice model [7]; [8]): 40%
Brain concentration ([1]; Time 0.167): 0.208 µmol/kg
Brain concentration ([1]; Time 0.5): 0.275 µmol/kg
Brain concentration ([1]; Time 1): 0.595 µmol/kg
Brain concentration ([1]; Time 2): 0.912 µmol/kg
Brain concentration ([1]; Time 4): 1.351 µmol/kg
Brain concentration ([1]; Time 7): 1.887 µmol/kg
Brain concentration ([1]; Time 24): 1.198 µmol/kg
Brain concentration ([1]; Time 48): 0.493 µmol/kg
Brain concentration ([1]; Time 72): 0.208 µmol/kg
Brain concentration ([1]; Time 96): 0.089 µmol/kg
Brain concentration ([1]; Time 120): 0.044 µmol/kg
Brain concentration ([1]; Time 168): 0.010 µmol/kg
Plasma concentration ([3]; Time 0.167): 4440 nM
Plasma concentration ([3]; Time 0.5): 4784 nM
Plasma concentration ([3]; Time 1): 7844 nM
Plasma concentration ([3]; Time 2): 4112 nM
Plasma concentration ([3]; Time 4): 2709 nM
Plasma concentration ([3]; Time 7): 1723 nM
Plasma concentration ([3]; Time 24): 581 nM
Plasma concentration ([3]; Time 48): 138 nM
Plasma concentration ([3]; Time 72): 70 nM
Plasma concentration ([3]; Time 96): 36 nM
Plasma concentration ([3]; Time 120): 11 nM
Plasma concentration ([3]; Time 168): 4 nM
% Killing [4]: 89.9%
IC50 [4]: 1630 nM

From patent publication US11649218B2, “C-Abl tyrosine kinase inhibitory compound embodiments and methods of making and using the same” (The USA, as represented by the Secretary, Dept. of Health …, priority 2018, dated 2023)
